The values that follow come from ChEMBL document CHEMBL5500375, “Design, synthesis, and evaluation of N1,N3-dialkyldioxonaphthoimidazoliums as antibacterial agents against methicillin-resistant Staphylococcus aureus” (Eur J Med Chem, 2024).

Structures are written as SMILES. Calls of active or inactive are those of the source. The calls are words filed in the database; no cut-off is given here. Bounds are passed on as bounds.

Series [1] concerns Staphylococcus aureus. The series can be described thus: Antibacterial agents against c5-resistant mutant of methicillin-resistant Staphylococcus aureus SA3 m1 assessed as absence of growth at 0.19 ug/ml measured after overnight incubation under anaerobic condition in presence of N-acetylcysteine by micro-dilution method. Format: functional, organism-based. As to conditions: dose 0.19 µg/ml. On the technique in general: In broth dilution the organism is exposed to a series of concentrations in liquid medium.

For series [2], the system named is Bacillus subtilis. The series can be described thus: Antibacterial agents against Bacillus subtilis PS380 assessed as absence of growth measured after 18 hrs by micro-dilution method. Format: functional.
Series [3] deals with Escherichia coli. The series can be described thus: Antibacterial agents against gram negative Escherichia coli MG1655 assessed as reduction in colony forming unit at 0.78 ug/ml measured upto 10 hrs in presence of 0.05 to 0.2 ug/ml Polymyxin B by LB agar medium method. Format: functional, organism-based. As to conditions: dose 0.78 µg/ml.
The test system of series [4] is Escherichia coli. Kind of series: Antibacterial agents against gram negative Escherichia coli MG1655 assessed as reduction in colony forming unit at 0.78 ug/ml measured upto 10 hrs in presence of 0.2 ug/ml Polymyxin B by LB agar medium method. As to conditions: dose 0.78 µg/ml. Format: functional.
The test system of series [5] is Staphylococcus aureus. Kind of series: Bactericidal activity against methicillin-resistant Staphylococcus aureus SA3 assessed as as reduction in colony forming unit at 0.1 to 0.4 ug/ml measured after 2 to 4 hrs by time-kill assay. Format: functional, organism-based. As to conditions: dose 0.1-0.4 µg/ml, time 2-4 hrs.
The subject of series [6] is Staphylococcus aureus. The series can be described thus: Antibacterial agents against methicillin-sensitive Staphylococcus aureus Newman assessed as absence of growth measured after 18 hrs by micro-dilution method. Format: functional.
Series [7] relates to Staphylococcus aureus. The series can be described thus: Anti-biofilim activity against methicillin-sensitive Staphylococcus aureus Newman assessed decrease in biofilm growth at 1 to 10 times of MIC concentration measured after 12 to 24 hrs incubation. Format: functional, organism-based. As to conditions: time 12-24 hrs.
Series [8] has as its system Bacillus subtilis. Kind of series: Antibacterial agents against Bacillus subtilis PS380 assessed as absence of growth at 0.19 ug/ml measured after overnight incubation under anaerobic condition in presence of N-acetylcysteine by micro-dilution method. Format: functional, organism-based. The settings on record: dose 0.19 µg/ml.
The subject of series [9] is Staphylococcus aureus. Kind of series: Anti-biofilim activity against methicillin-resistant Staphylococcus aureus SA3 assessed decrease in biofilm growth at 1 to 10 times of MIC concentration measured after 12 to 24 hrs incubation. Format: functional, organism-based. As to conditions: time 12-24 hrs.
Series [10] has as its system Staphylococcus aureus. The series can be described thus: Antibacterial agents against methicillin-sensitive Staphylococcus aureus SA1 assessed as absence of growth at 0.19 ug/ml measured after overnight incubation under anaerobic condition in presence of N-acetylcysteine by micro-dilution method. Format: functional, organism-based. The settings on record: dose 0.19 µg/ml.

The test system of series [11] is Pseudomonas aeruginosa. Kind of series: Antibacterial agents against gram negative Pseudomonas aeruginosa PA14 assessed as reduction in colony forming unit at 0.78 ug/ml measured upto 10 hrs in presence of 0.1 ug/ml Polymyxin B by LB agar medium method. Format: functional, organism-based. As to conditions: dose 0.78 µg/ml.
In series [12] the test system is Staphylococcus aureus. The series can be described thus: Bactericidal activity against methicillin-resistant Staphylococcus aureus SA3 assessed as as reduction in colony forming unit at 0.78 ug/ml measured upto 10 hrs by time-kill assay. Format: functional, organism-based. As to conditions: dose 0.78 µg/ml.
Series [13] relates to Staphylococcus aureus. Kind of series: Antibacterial agents against c5-resistant mutant of methicillin-resistant Staphylococcus aureus SA3 m6 assessed as absence of growth at 0.19 ug/ml measured after overnight incubation under anaerobic condition in presence of N-acetylcysteine by micro-dilution method. Format: functional, organism-based. As to conditions: dose 0.19 µg/ml.

Series [14] has as its system Staphylococcus aureus. Kind of series: Antibacterial activity against c5-resistant mutant of methicillin-resistant Staphylococcus aureus SA3 m6 assessed as fold increase in MIC measured after 12 passages to MIC during first passage. Format: functional.
Series [15] has as its system Staphylococcus aureus. The series can be described thus: Antibacterial agents against c5-resistant mutant of methicillin-resistant Staphylococcus aureus SA3 m3 assessed as absence of growth at 0.19 ug/ml measured after overnight incubation under anaerobic condition in presence of N-acetylcysteine by micro-dilution method. Format: functional, organism-based. As to conditions: dose 0.19 µg/ml.

The test system of series [16] is Pseudomonas aeruginosa. Kind of series: Antibacterial agents against gram negative Pseudomonas aeruginosa PA14 assessed as reduction in colony forming unit at 0.78 ug/ml measured upto 10 hrs in presence of 0.2 ug/ml Polymyxin B by LB agar medium method. The settings on record: dose 0.78 µg/ml. Format: functional.
The subject of series [17] is Staphylococcus aureus. The series can be described thus: In vivo antibacterial activity against methicillin-resistant Staphylococcus aureus SA3 infected in dorsal thorax of Drosophila melanogaster strain Oregon R assessed as median survival time of Drosophila at 0.04 to 0.2 mg/ml measured upto 72 hrs. Format: functional. As to conditions: dose 0.04-0.2 mg/ml.
The nature of series [18]: Metabolic stability in human liver microsomes assessed as half life at 2 uM preincubated for 5 mins followed by NADPH addition and measured for 35 mins by LC/MS analysis. Format: ADME, Microsome. The settings on record: preincubation 5 min.
In series [19] the test system is Staphylococcus aureus. Kind of series: Antibacterial activity against methicillin-resistant Staphylococcus aureus SA3 assessed as resistance by measuring antibacterial activity after 10 passages at 0.39 ug/ml by emergence of bacterial resistance assay. The settings on record: dose 0.39 µg/ml. Format: functional, organism-based.
The subject of series [20] is Staphylococcus aureus. Kind of series: Antibacterial agents against methicillin-sensitive Staphylococcus aureus SA1 assessed as absence of growth measured after 18 hrs by micro-dilution method. Format: functional.

As a reminder, the MIC is the lowest concentration that inhibits growth of the organism. A word on the half-life: it is the time in which the quantity being followed falls by half. In the case of `CCCCCCCCn1c2c([n+](Cc3ccccc3)c1C)C(=O)c1ccccc1C2=O.[Br-]`, the result with Staphylococcus aureus [1], in the series with Escherichia coli [3], with Staphylococcus aureus [5], in the series on Staphylococcus aureus [10], with Staphylococcus aureus [13] and in the series on Staphylococcus aureus [15] was inactive. Besides, the minimum inhibitory concentration (MIC) is 0.39 mg/L in the series with Bacillus subtilis [2], 0.19 mg/L in the series with Staphylococcus aureus [6] and 0.19 mg/L in the series with Staphylococcus aureus [20]. For the same compound, the figures for the Activity with Escherichia coli [4] and with Pseudomonas aeruginosa [16] were 4 log10CFU/ml and above 4 log10CFU/ml, respectively. Also, the outcome in the series with Staphylococcus aureus [7], in the series with Bacillus subtilis [8], in the series on Staphylococcus aureus [9], with Pseudomonas aeruginosa [11], in the series with Staphylococcus aureus [12] and in the series on Staphylococcus aureus [19] was Active. In addition, the “fold change (FC)” value with Staphylococcus aureus [14] is on record as 2. In the series with Staphylococcus aureus [17], the Time was determined as 56 h. Also, the half-life at 2 µM in series [18] came to 32 min.
